Laboratory results reported in PubChem BioAssay (NCI).
Several values for one entry are separate records, joined by “and”; a condition that tells them apart may be missing. Equal values may be shown once.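 Five compound concentrations were applied to cells in 96-well plates for 48 hours; endpoints were derived by simple linear interpolation of the resulting dose-response curve. The concentration for 50% growth inhibition is given as GI50. At the TGI there is no net growth.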

Key:
Experiment in all cases: inhibition of tumour cell growth, NCI panel, 48 h
[1] = tested on: A549 NSCLC
[2] = tested on: HCT-116 colon
[3] = tested on: KM12 colon
[4] = tested on: M14 melanoma
[5] = tested on: MDA-MB-435
[6] = tested on: NCI-H226 lung
[7] = tested on: NCI-H460 lung
[8] = tested on: U251 CNS
[9] = tested on: HCC-2998 colon
[10] = tested on: NCI-H23 lung

| Structure (SMILES) | TGI [1] | TGI [2] | TGI [3] | TGI [4] | TGI [5] | TGI [6] | TGI [7] | TGI [8] | GI50 [1] | GI50 [9] | TGI [9] | GI50 [2] | GI50 [3] | GI50 [4] | GI50 [5] | GI50 [6] | GI50 [10] | TGI [10] | GI50 [7] | GI50 [8] |
| --- | --- | --- | --- | --- | --- | --- | --- | --- | --- | --- | --- | --- | --- | --- | --- | --- | --- | --- | --- | --- |
| O=C(O)c1cccc(F)c1C(=O)c1ccc2ccccc2c1 | > 100 µM | > 100 µM | > 100 µM | > 100 µM | > 100 µM | > 100 µM | > 100 µM | > 100 µM | – | – | – | – | – | – | – | – | – | – | – | – |
| COc1ccc2c(C(=O)NCCCCCC(=O)O)cc3cc4c(cc3c2c1)OCO4 | > 100 µM | > 100 µM | > 100 µM | > 100 µM | > 100 µM | > 100 µM | > 100 µM | > 100 µM | > 100 µM | > 100 µM | > 100 µM | > 100 µM | > 100 µM | > 100 µM | > 100 µM | 83.5 µM | > 100 µM | > 100 µM | > 100 µM | > 100 µM |
| COC(=O)c1cccc(COc2ccc([N+](=O)[O-])cc2Cl)c1 | > 100 µM | > 100 µM | > 100 µM | > 100 µM | > 100 µM | > 100 µM | > 100 µM | > 100 µM | – | – | – | – | – | – | – | – | – | > 100 µM | – | – |
| N[C@@H](Cc1ccc(N(CCCl)CCCl)cc1)C(=O)O | > 100 µM and > 90.2 µM and 186 µM | > 100 µM and 51.1 µM and 137 µM | > 100 µM and > 83.7 µM and 168 µM | > 100 µM and 84.2 µM | > 100 µM and 105 µM | > 100 µM and 52.7 µM and 156 µM | > 100 µM and 29.2 µM and 103 µM | > 100 µM and 31.7 µM and 121 µM | 23.9 µM and 16.7 µM | 75.5 µM and 22.1 µM | > 100 µM and 62.2 µM and 95.4 µM | 25.4 µM and 20.9 µM | 83.9 µM and 42.7 µM | 17.3 µM | 63.4 µM | 44.6 µM and 26.6 µM | 20.6 µM and 12.5 µM | > 100 µM and 45.5 µM and 84.7 µM | 3.01 µM and 3.78 µM | 16.1 µM and 11.9 µM |
| Cc1nc(N(C)C)nc(-c2cccc(-c3ccn(CCN(C)C)n3)c2)c1C | > 20 µM | > 20 µM | > 20 µM | > 20 µM | > 20 µM | > 20 µM | > 20 µM | > 20 µM | > 20 µM | > 20 µM | > 20 µM | > 20 µM | > 20 µM | > 20 µM | > 20 µM | > 20 µM | > 20 µM | > 20 µM | > 20 µM | > 20 µM |
| OC(c1cc2c(Cl)cc(Cl)cc2c2cc(C(F)(F)F)ccc12)C1CCCCN1 (stereo not drawn) | 3.68 µM | 3.37 µM | 3.46 µM | 4.12 µM | 4.75 µM | 3.56 µM | 3.4 µM | – | 1.85 µM | 1.64 µM | 3.24 µM | 1.67 µM | 1.89 µM | 2.04 µM | 2.14 µM | 1.73 µM | 1.66 µM | 3.43 µM | 1.7 µM | – |
| CCN(CC)CCCNc1c2cc(OC)ccc2nc2cccc([N+](=O)[O-])c12 | 0.507 µM | 0.175 µM | 0.347 µM | 0.24 µM | 0.229 µM | 0.51 µM | 0.0596 µM | 0.432 µM | – | – | 0.192 µM | – | – | – | – | – | – | 0.344 µM | – | – |
| COc1cc(Nc2nccc(-c3cnn4ncccc34)n2)cc(OC)c1 | 5.67 µM | > 14.9 µM | 0.272 µM | 0.838 µM | 0.859 µM | 0.324 µM | 2.93 µM | 2.46 µM | 0.119 µM | 0.104 µM | 1.71 µM | 0.0439 µM | 0.0349 µM | 0.0891 µM | 0.07 µM | 0.0577 µM | 0.0579 µM | 0.586 µM | 0.0539 µM | 0.075 µM |
| Cc1cccc(C)c1NC(=O)/C(CC(=O)CC(c1ccccc1)c1c(O)c2ccccc2oc1=O)=N/O (stereo not drawn) | > 100 µM | > 100 µM | > 100 µM | > 100 µM | > 100 µM | > 100 µM | > 100 µM | > 100 µM | – | – | > 100 µM | – | – | – | – | – | – | > 100 µM | – | – |
| COc1nc(C(Cl)(Cl)Cl)c(Cl)c(OC)c1Cl | > 88.9 µM and 77.8 µM | > 57.8 µM and 78.3 µM | > 91 µM and 70.1 µM | > 83.7 µM and 74.5 µM | 79.7 µM | 71.5 µM | > 57.9 µM and 61.2 µM | 69.9 µM | > 52.5 µM | – | > 58.3 µM and 95 µM | – | > 56.7 µM | > 52 µM | – | – | > 31.6 µM | > 31.6 µM and 79.4 µM | > 39.4 µM | – |
| CCCCCCOc1ccc(/C=N/Nc2cc(C)nc3ccc(Br)cc23)cc1 | 3.43 µM | 2.11 µM | 3.5 µM | 3.08 µM | 3.16 µM | 3.16 µM | 3.88 µM | 3.36 µM | 1.78 µM | 2.03 µM | 3.56 µM | 0.85 µM | 1.8 µM | 1.67 µM | 1.73 µM | 1.6 µM | 1.78 µM | 3.43 µM | 1.94 µM | 1.87 µM |
| CCCCCCCCCCCC(=O)[O][Sn]([CH2]CCC)([CH2]CCC)[CH2]CCC | 0.185 µM | 0.14 µM | 0.117 µM | 0.142 µM | 0.15 µM | – | 0.156 µM | 0.125 µM | 0.055 µM | 0.0669 µM | 0.187 µM | 0.0379 µM | 0.0357 µM | 0.0548 µM | 0.0553 µM | – | 0.0312 µM | 0.145 µM | 0.0438 µM | 0.0442 µM |
| O=P1(NCCCl)OCCC(OO)N1CCCl (stereo not drawn) | > 100 µM | 33.6 µM | > 100 µM | > 57 µM | > 100 µM | > 100 µM | > 100 µM | > 100 µM | – | – | > 100 µM | – | – | – | – | – | – | > 84.8 µM | – | – |
| NC1=C(O)/C(=N/NS(=O)(=O)c2ccccc2)C(c2cccc(Cl)c2)O1 (stereo not drawn) | > 100 µM | 53.6 µM | > 100 µM | 67.6 µM | > 100 µM | > 90.9 µM | > 100 µM | 55.7 µM | – | – | > 100 µM | – | – | – | – | – | – | 73.5 µM | – | – |
| COc1ccc(/C=C/c2cnnc3ccccc23)cc1OC | > 10 µM | > 10 µM | > 10 µM | > 10 µM | > 10 µM | > 10 µM | > 10 µM | > 10 µM | – | – | > 10 µM | – | – | – | – | – | – | > 10 µM | – | – |
| COc1cc2c(cc1OC)-c1c(c3ccc([N+](=O)[O-])cc3c(=O)n1CCCBr)C2=O | > 100 µM | > 100 µM | > 100 µM | 26.7 µM | > 100 µM | 85.1 µM | > 100 µM | > 100 µM | 28.9 µM | 59.7 µM | > 100 µM | 4.31 µM | 29.8 µM | 2.39 µM | 25.4 µM | 22.7 µM | 3.32 µM | 67.5 µM | 0.573 µM | 5.14 µM |
